In patent US12486489B2, “Culture medium for testing drug resistance of H.pylori as well as preparation method and use thereof” (priority 2022, dated 2025):
Like-named read-outs stand apart in the source and are kept apart here.

Columns and labels:
[1] = test system: H. pylori; conditions: bacterial count 1×10^6 CFU/mL; cited from earlier work
[2] = test system: H. pylori; assay: Verification of resistance breakpoint: growth of laboratory strains on Columbia solid culture medium with added antibiotics, 72 hours; type: cell-based, Helicobacter pylori; conditions: for growth of bacterial: antibiotic 0.0313 μg/mL
Description: The plates are cooled and inverted for approximately 10 mL/piece, marked properly for the subsequent use.
(2) Preparation of bacterial solution: H. pylori grown in logarithmic phase on a solid plate is taken to prepare a bacterial suspension by using BHI. The concentration OD600 is adjusted to 0.3 (1×10^8 CFU/mL), diluted 10 times for the subsequent use.
(3) Inoculation of bacterial solution: 10 μL of bacterial solution is taken and added to Columbia culture medium and the results are determined after cultivating for 72 hours.
(4) Result determination: the minimum drug concentration for no growth of bacteria on the plate is the minimum inhibitory concentration of the bacteria against the drug.

[3] = test system: H. pylori; assay: MIC of laboratory H. pylori strains by micro dilution method; type: cell-based; conditions: Helicobacter pylori
Description: (3) Preparation of bacterial solution: H. pylori grown in logarithmic phase on a solid plate is taken, BHI culture medium is used to prepare a bacterial suspension. The concentration of the bacterial solution is adjusted to 1×10^8 CFU/mL (OD600 is 0.3), diluted 10 times, 100 times, and 1000 times to implement a final concentration of […], for the subsequent use.
(4) Inoculation of bacterial solution: 10 μL of the above bacterial solution for the subsequent use is taken and added to wells the 1-10-th and the 12-th well (bacterial working concentration is 1×10^6 CFU/mL), the 11-th well serves as a non-bacterial control and only sterile water is added. The wells are cultivated for 72 hours to determine the results.

[4] = test system: H. pylori; assay: Drug resistance testing of laboratory strains on characteristic culture medium (discoloration after 36 hours); type: cell-based, Helicobacter pylori
Description: The characteristic culture media (A, B, C, D, E) are cultivated at a constant temperature of 37° C. for 36 hours in a three gas incubator. The characteristic culture media are removed and placed in a natural environment for 30 minutes to observe whether there are discolorations at the point of the culture medium where the specimen is dropped in. […] Another 100 μL of the specimen is taken and coated on Columbia solid culture medium and cultivated in a three gas incubator at a constant temperature of 37° C. for 3 days to 5 days. The number of colonies on the plate is counted to determine the initial inoculation amount. The micro dilution method is adopted to test the MIC of clinical specimen H. pylori, the test is meaningful only when there is no bacterial growth in the negative control well without bacteria and there is bacterial growth in the positive well with bacteria but without antibiotics. […] The results are recorded and whether the micro dilution method and characteristic culture medium are consistent with each other in evaluating the drug resistance of clinical H. pylori strains is compared. […]
(2) Inoculation of bacterial solution: 10 μL bacterial solution is taken and added dropwise onto a characteristic culture medium with 5 pieces (ABCDE) in total.
(3) Culture: all plates are moved to a three gas incubator and cultivated at 37° C. for 36 hours. After being taken out and placed in a natural environment for 30 minutes, whether the bacteria have resistance is determined based on the discoloration of the characteristic culture medium.

[5] = test system: clinical H. pylori strain; assay: MIC of clinical H. pylori strains by micro dilution method; type: cell-based; conditions: Helicobacter pylori, 72 h, approximately 1.0×10^6 CFU/mL per well, 72 hours, read-out: MIC
Description: The characteristic culture media (A, B, C, D, E) are cultivated at a constant temperature of 37° C. for 36 hours in a three gas incubator. The characteristic culture media are removed and placed in a natural environment for 30 minutes to observe whether there are discolorations at the point of the culture medium where the specimen is dropped in. […] Another 100 μL of the specimen is taken and coated on Columbia solid culture medium and cultivated in a three gas incubator at a constant temperature of 37° C. for 3 days to 5 days. The number of colonies on the plate is counted to determine the initial inoculation amount. The micro dilution method is adopted to test the MIC of clinical specimen H. pylori, the test is meaningful only when there is no bacterial growth in the negative control well without bacteria and there is bacterial growth in the positive well with bacteria but without antibiotics.
H. pylori single colony grown on Colombian culture medium is taken (which is confirmed as H. pylori by urease, oxidase, catalase, and PCR testing of CagA gene, as illustrated in FIG. 13) and the bacteria are increased. During the preparation of MIC plates and bacterial solution, H. pylori with logarithmic growth phase is taken to prepare a bacterial suspension by using BHI. The concentration OD600 is adjusted to 0.3 (1×10^8 CFU/mL, diluted 10 times, 10 μL is taken and added to wells 1-8 (with a bacterial solution concentration of approximately 1.0×10^6 CFU/mL per well, cultivated for 72 hours to determine the results.

SMILES: CC1(C)S[C@@H]2[C@H](NC(=O)[C@H](N)c3ccc(O)cc3)C(=O)N2[C@H]1C(=O)O [Amoxicillin, amoxicillin]
- resistance breakpoints of H. pylori according to CLSI guidelines [1]: 0.5 µg/mL
- growth of sensitive strains ([2]; levofloxacin 0.5, clarithromycin 0.5, metronidazole 4, amoxicillin 0.5 μg/mL): no sensitive strain grows
- growth of bacterial ([2]; strain 159): +
- growth of bacterial ([2]; strain 161): +
- growth of bacterial ([2]; strain 162): +
- growth of bacterial ([2]; strain 163): +
- growth of bacterial ([2]; strain 286): −
- growth of bacterial ([2]; strain 287): +
- growth of bacterial ([2]; strain 289): +
- growth of bacterial ([2]; strain 290): +
- growth of bacterial ([2]; strain 26695): +
- growth of bacterial ([2]; strain G27): +
- MIC ([3]; read-out: MICs, standard sensitive strains G27 and 26695, bacterial count 1×10^6 CFU/mL): 0.0156 to 0.0325 µg/mL
- MIC ([3]; read-out: minimum inhibitory concentration (MIC), strain 159, bacterial count 10^6 CFU/mL (first line of the strain)): 0.125 µg/mL
- MIC ([3]; read-out: minimum inhibitory concentration (MIC), strain 161, bacterial count 10^6 CFU/mL (first line of the strain)): 0.125 µg/mL
- MIC ([3]; read-out: minimum inhibitory concentration (MIC), strain 162, bacterial count 10^6 CFU/mL (first line of the strain)): 0.125 µg/mL
- MIC ([3]; read-out: minimum inhibitory concentration (MIC), strain 163, bacterial count 10^4 CFU/mL): 0.25 µg/mL
- MIC ([3]; read-out: minimum inhibitory concentration (MIC), strain 163, bacterial count 10^6 CFU/mL (first line of the strain)): 1 µg/mL
- MIC ([3]; read-out: minimum inhibitory concentration (MIC), strain 163, bacterial count 10^6 CFU/mL (second line of the strain)): 0.5 µg/mL
- MIC ([3]; read-out: minimum inhibitory concentration (MIC), strain 286, bacterial count 10^4 CFU/mL): 0.5 µg/mL
- MIC ([3]; read-out: minimum inhibitory concentration (MIC), strain 286, bacterial count 10^6 CFU/mL (first line of the strain)): 1 µg/mL
- MIC ([3]; read-out: minimum inhibitory concentration (MIC), strain 286, bacterial count 10^6 CFU/mL (second line of the strain)): 0.5 µg/mL
- MIC ([3]; read-out: minimum inhibitory concentration (MIC), strain 287, bacterial count 10^6 CFU/mL (first line of the strain)): 0.25 µg/mL
- MIC ([3]; read-out: minimum inhibitory concentration (MIC), strain 287, bacterial count 10^6 CFU/mL (second line of the strain)): 0.125 µg/mL
- MIC ([3]; read-out: minimum inhibitory concentration (MIC), strain 289, bacterial count 10^4 CFU/mL): 0.125 µg/mL
- MIC ([3]; read-out: minimum inhibitory concentration (MIC), strain 289, bacterial count 10^6 CFU/mL (first line of the strain)): 1 µg/mL
- MIC ([3]; read-out: minimum inhibitory concentration (MIC), strain 289, bacterial count 10^6 CFU/mL (second line of the strain)): 0.5 µg/mL
- MIC ([3]; read-out: minimum inhibitory concentration (MIC), strain 290, bacterial count 10^4 CFU/mL): 1 µg/mL
- MIC ([3]; read-out: minimum inhibitory concentration (MIC), strain 290, bacterial count 10^6 CFU/mL (first line of the strain)): 4 µg/mL
- MIC ([3]; read-out: minimum inhibitory concentration (MIC), strain 290, bacterial count 10^6 CFU/mL (second line of the strain)): 2 µg/mL
- MIC ([3]; read-out: minimum inhibitory concentration (MIC), strain 26695, bacterial count 10^4 CFU/mL): 0.0325 µg/mL
- MIC ([3]; read-out: minimum inhibitory concentration (MIC), strain 26695, bacterial count 10^6 CFU/mL (second line of the strain)): 0.0325 µg/mL
- MIC ([3]; strain G27, bacterial count 10^4 CFU/mL, read-out: minimum inhibitory concentration (MIC)): 0.00781 µg/mL
- MIC ([3]; strain G27, bacterial count 10^6 CFU/mL (first line of the strain), read-out: minimum inhibitory concentration (MIC)): 0.0312 µg/mL
- MIC ([3]; strain G27, bacterial count 10^6 CFU/mL (second line of the strain), read-out: minimum inhibitory concentration (MIC)): 0.0156 µg/mL
- drug resistance determined by discoloration of characteristic culture medium ([4]; strain 159, 1×10^6 CFU/mL): sensitive
- drug resistance determined by discoloration of characteristic culture medium ([4]; strain 286, 1×10^6 CFU/mL): have developed resistance
- drug resistance determined by discoloration of characteristic culture medium ([4]; strain 287, 1×10^6 CFU/mL): have developed resistance
- drug resistance determined by discoloration of characteristic culture medium ([4]; strain 289, 1×10^6 CFU/mL): have developed resistance
- drug resistance determined by discoloration of characteristic culture medium ([4]; strain G27, 1×10^6 CFU/mL): does not develop resistance
- MIC ([5]; clinical strain FY-31): 0.0312 µg/mL
- MIC ([5]; clinical strain FY-43): 0.0312 µg/mL
- MIC ([5]; clinical strain FY-47): 0.0312 µg/mL
- MIC ([5]; clinical strain FY-52): < 0.0312 µg/mL
